{
  "source": "patent US20140357512A1",
  "about": "“HISTONE DEACETYLASE (HDAC) BIOMARKERS IN MULTIPLE MYELOMA” (priority 2013, published 2014)",
  "tested_on": "human myeloma cell line MM.1S",
  "assay": "SILAC acetylated-lysine peptide profiling, HDAC inhibitor vs DMSO (light/heavy ratio)",
  "type": "cell-based",
  "from_the_text": "An embodiment of the invention comprises utilizing the SILAC method in order to quantitate changes in protein expression between two or more populations of cells. The SILAC method is a technique based on mass spectrometry that detects differences in protein abundance among samples using non-radioactive isotopic labeling. The SILAC method is known in the art, and described in detail in Ong et al., “Stable Isotope Labeling by Amino Acids in Cell Culture, SILAC, as a Simple and Accurate Approach to Expression Proteomics”, Molecular & Cellular Proteomics, vol. 1, pp. 376-386 (2002), which is incorporated herein by reference in its entirety.\nBriefly, the SILAC method involves growing two populations of cells in cell culture. The first population of cells is grown in growth media containing normal amino acids (“normal media”). The second population of cells is grown in media lacking a standard essential amino acid (such as lysine), but is then supplemented with a non-radioactive, isotopically labeled form of that essential amino acid (such as lysine labeled with ^13C atoms, rather than normal ^12C atoms), which is called “heavy media”. When the two populations of cells are each growing in the medium, they incorporate the amino acids into all of their proteins. The growth of cells maintained in the heavy media is no different from that in normal media. All peptides containing the heavy amino acids are heavier than their normal counterparts. The cells from each of the two populations of cells are lysed. The lysates from each of the two cell populations are then combined. The combined cell lysates are then analyzed by mass spectrometry. Pairs of chemically identical peptides of different stable isotope composition can be differentiated in a mass spectrometer due to their difference in mass. The ratio of peak intensities in the mass spectrum for such peptide pairs reflects the abundance ratio for the two proteins.\nThis example describes SILAC studies that were performed to compare the effects of three different HDAC inhibitors (Compound A, Compound B, and tubastatin A) to a control on a human multiple myeloma cell line. The HDAC inhibitors were also compared amongst themselves to determine differences in their effects.\nA human myeloma cell line MM.1S was grown using either ^12C (light) or ^13C (heavy) lysine containing culture medium. The “heavy” cells were treated with DMSO as the control, and the “light” cells were treated with a single HDAC inhibitor at 37° C. for 6 hours. The heavy and light cells were lysed, and the lysates were mixed in 1:1 ratio and digested with the protease trypsin. The acetylated lysine containing peptides (due to the action of the HDAC inhibitor) in the digested peptide pool were captured by a non-specific anti-acetylated lysine antibody cocktail (the antibodies identify both light and heavy acetylated peptides), and subjected to mass spectrometry analysis in order to identify thousands of individual peptides.\nThousands of peptides were identified in pairs (^12C and ^13C) due to their known mass differences. The amino acid sequence and quantitative ratio (Light/Heavy) of a given peptide in two differentially treated cell lysates were then determined and annotated with their possible protein (gene) sources.\nAs stated above, three HDAC inhibitors (Compound A, Compound B, and Tubastatin A) were used. Thus, the SILAC method was performed three times, with a different HDAC inhibitor compared to a control each time. Accordingly, there are three pairs of quantitative data in the table below, i.e., Compound A:DMSO, Compound B:DMSO, and Tubastatin A:DMSO. A cut-off of 1.30 fold of change (increase or decrease) was then used to determine “changed” or “+” in the table, and any peptides with a fold of change less than 1.3 fold were determined to be “unchanged” or “0” in the table. Those peptides that were not identified were marked as “NA” in the table. […]",
  "data": [
    {"smiles": "O=C(CCCCCCNC(=O)c1cnc(N(c2ccccc2)c2ccccc2)nc1)NO", "note": "[Compound A, 2-(diphenylamino)-N-(7-(hydroxyamino)-7-oxoheptyl)pyrimidine-5-carboxamide]", "values": [
      {"measurement": "L/H ratio of acetylated peptide […](ac)K (SEQ ID NO: 105)", "setting": "SNORD21, RPL5 [220], log 2 scale, drug vs DMSO", "result": 0.00},
      {"measurement": "L/H ratio of acetylated peptide […](ac)R (SEQ ID NO: 106)", "setting": "SNORD43, RPL3 [115], log 2 scale, drug vs DMSO", "result": 0.00},
      {"measurement": "L/H ratio of acetylated peptide […](ac)YGAIR (SEQ ID NO: 107)", "setting": "SRSF1 [38], log 2 scale, drug vs DMSO", "result": 0.00},
      {"measurement": "L/H ratio of acetylated peptide (ac)AEPSAPESK(ac)HK (SEQ ID NO: 108)", "setting": "STT3B [10], log 2 scale, drug vs DMSO", "result": 0.00},
      {"measurement": "L/H ratio of acetylated peptide", "setting": "SYAEELAK(ac)HGMK (SEQ ID NO: 481), Estradiol 17-beta-dehydrogenase 12 [72], HSD17B12", "result": 0.39, "unit": "log 2"},
      {"measurement": "light to heavy ratio (L/H ratio), log 2 scale, acetylated peptide […](ac)R (SEQ ID NO: 781)", "setting": "Selenoprotein H [20], gene C11orf31, drug:DMSO", "result": 1.00},
      {"measurement": "light to heavy ratio (L/H ratio) of acetylated peptide LQDFK(ac)SFLLK (SEQ ID NO: 582)", "setting": "Serine hydroxymethyltransferase mitochondrial [469], gene SHMT2, inhibitor:DMSO", "result": 0.43, "unit": "log 2"},
      {"measurement": "light to heavy ratio (L/H ratio) of acetylated peptide SFLLK(ac)DSETSQR (SEQ ID NO: 567)", "setting": "Serine hydroxymethyltransferase mitochondrial [474], gene SHMT2, inhibitor:DMSO", "result": 0.41, "unit": "log 2"},
      {"measurement": "light to heavy ratio (L/H ratio) of acetylated peptide VFEK(ac)YGR (SEQ ID NO: 568)", "setting": "Serine/arginine-rich splicing factor 2 [36], gene SRSF2, inhibitor:DMSO", "result": 0.41, "unit": "log 2"},
      {"measurement": "light to heavy ratio (L/H ratio) of acetylated peptide SGLLDK(ac)WK (SEQ ID NO: 602)", "setting": "Signal peptidase complex subunit 2 [38], gene LOC653566, SPCS2, inhibitor:DMSO", "result": 0.46, "unit": "log 2"},
      {"measurement": "light to heavy ratio (L/H ratio) of acetylated peptide (ac)[…](ac)DK (SEQ ID NO: 283)", "setting": "Splicing factor U2AF 35 kDa subunit [13], U2AF1, drug:DMSO", "result": 0.60, "unit": "log 2"},
      {"measurement": "light to heavy ratio (L/H ratio) of acetylated peptide YDDPEVQK(ac)DIK (SEQ ID NO: 578)", "setting": "Stress-70 protein mitochondrial [135], gene HSPA9, inhibitor:DMSO", "result": 0.43, "unit": "log 2"},
      {"measurement": "light to heavy ratio (L/H ratio) of acetylated peptide […](ac)SLAEHR (SEQ ID NO: 534)", "setting": "Stress-induced-phosphoprotein 1 [325], gene STIP1, inhibitor:DMSO", "result": "−0.40", "unit": "log 2"},
      {"measurement": "light to heavy ratio (L/H ratio) of acetylated peptide, log 2 scale", "setting": "TLQYK(ac)[…] (SEQ ID NO: 252), 40S ribosomal protein S16 [50], RPS16", "result": "−0.39"},
      {"measurement": "L/H ratio of acetylated peptide […](ac)YVPR (SEQ ID NO: 109)", "setting": "TUBB2C [58], log 2 scale, drug vs DMSO", "result": 0.00},
      {"measurement": "L/H ratio of acetylated peptide ILAEGGGAK(ac)FK (SEQ ID NO: 110)", "setting": "TUFM [91], log 2 scale, drug vs DMSO", "result": 0.00},
      {"measurement": "L/H ratio of acetylated peptide QIESK(ac)[…] (SEQ ID NO: 111)", "setting": "TXN [8], log 2 scale, drug vs DMSO", "result": 0.00},
      {"measurement": "L/H ratio of acetylated peptide VYVAK(ac)[…] (SEQ ID NO: 113)", "setting": "TXNDC5, MUTED, MUTED-TXNDC5 [118], log 2 scale, drug vs DMSO", "result": 0.00},
      {"measurement": "L/H ratio of acetylated peptide […](ac)YQGPR (SEQ ID NO: 112)", "setting": "TXNDC5, MUTED, MUTED-TXNDC5 [150], log 2 scale, drug vs DMSO", "result": 0.00},
      {"measurement": "light to heavy ratio (L/H ratio), log 2 scale, acetylated peptide LLGITK(ac)ECVMR (SEQ ID NO: 815)", "setting": "Talin-1 [334], gene TLN1, drug:DMSO", "result": 1.00},
      {"measurement": "light to heavy ratio (L/H ratio) of acetylated peptide NICSK(ac)YSVR (SEQ ID NO: 256)", "setting": "Thioredoxin domain-containing protein 5 [390], TXNDC5, MUTED, MUTED-TXNDC5, drug:DMSO", "result": 0.39, "unit": "log 2"},
      {"measurement": "light to heavy ratio (L/H ratio), log 2 scale, acetylated peptide […](ac)YGK (SEQ ID NO: 817)", "setting": "Transitional endoplasmic reticulum ATPase [109], gene VCP, drug:DMSO", "result": 1.00},
      {"measurement": "light to heavy ratio (L/H ratio) of acetylated peptide AVDCLLDSK(ac)WAK (SEQ ID NO: 518)", "setting": "Translocation protein SEC62 [60], gene SEC62, inhibitor:DMSO", "result": "−0.51", "unit": "log 2"},
      {"measurement": "light to heavy ratio (L/H ratio) of acetylated peptide NVK(ac)FVLK (SEQ ID NO: 609)", "setting": "Translocon-associated protein subunit gamma [81], gene SSR3, inhibitor:DMSO", "result": 0.47, "unit": "log 2"},
      {"measurement": "light to heavy ratio (L/H ratio) of acetylated peptide SEIINSK(ac)NFDR (SEQ ID NO: 525)", "setting": "Transmembrane protein 43 [159], gene TMEM43, inhibitor:DMSO", "result": "−0.45", "unit": "log 2"},
      {"measurement": "light to heavy ratio (L/H ratio) of acetylated peptide VK(ac)[…] (SEQ ID NO: 562)", "setting": "Tricarboxylate transport protein mitochondrial [149], gene SLC25A1, inhibitor:DMSO", "result": 0.40, "unit": "log 2"},
      {"measurement": "light to heavy ratio (L/H ratio), log 2 scale, acetylated peptide ESK(ac)[…] (SEQ ID NO: 787)", "setting": "Trifunctional enzyme subunit alpha mitochondrial [337], gene HADHA, drug:DMSO", "result": 1.00},
      {"measurement": "light to heavy ratio (L/H ratio), log 2 scale, acetylated peptide FGAPQK(ac)DVK (SEQ ID NO: 788)", "setting": "Trifunctional enzyme subunit alpha mitochondrial [359], gene HADHA, drug:DMSO", "result": 1.00},
      {"measurement": "light to heavy ratio (L/H ratio), log 2 scale, acetylated peptide ILQEGVDPK(ac)K (SEQ ID NO: 789)", "setting": "Trifunctional enzyme subunit alpha mitochondrial [569], gene HADHA, drug:DMSO", "result": 1.00},
      {"measurement": "light to heavy ratio (L/H ratio) of acetylated peptide VPGK(ac)DTVTK (SEQ ID NO: 308)", "setting": "Trifunctional enzyme subunit beta mitochondrial [272], HADHB, drug:DMSO", "result": 1.00, "unit": "log 2"},
      {"measurement": "light to heavy ratio (L/H ratio), log 2 scale, acetylated peptide GK(ac)GK(ac)AGR (SEQ ID NO: 816)", "setting": "Tubulin polymerization-promoting protein [187:189], gene TPPP, drug:DMSO", "result": 1.00},
      {"measurement": "L/H ratio of acetylated peptide VVVTK(ac)YCDPDSYHR (SEQ ID NO: 114)", "setting": "U2AF2 [462], log 2 scale, drug vs DMSO", "result": 0.00},
      {"measurement": "light to heavy ratio (L/H ratio), log 2 scale, acetylated peptide QNIILK(ac)NDK (SEQ ID NO: 784)", "setting": "Uncharacterized protein CXorf59 [13], gene CXorf59, drug:DMSO", "result": 1.00},
      {"measurement": "L/H ratio of acetylated peptide", "setting": "VAILK(ac)ANLR (SEQ ID NO: 488), Transitional endoplasmic reticulum ATPase [658], VCP", "result": 0.80, "unit": "log 2"},
      {"measurement": "L/H ratio of acetylated peptide FGIAAK(ac)[…] (SEQ ID NO: 115)", "setting": "VDAC1 [224], log 2 scale, drug vs DMSO", "result": 0.00},
      {"measurement": "L/H ratio of acetylated peptide YK(ac)[…] (SEQ ID NO: 116)", "setting": "VDAC2 [63], log 2 scale, drug vs DMSO", "result": 0.00}
    ]}
  ]
}
